One experiment relates to platelet aggregation. In words: In vitro inhibitory activity of platelet aggregation (ADP-induced, platelet-rich plasma). It counts as cell-based, rabbit (Japanese domestic white male rabbits). The note with it: Oryctolagus cuniculus, rabbit PRP, 10 μM (final) ADP, pre-incubated at 37° C. for 2 minutes, read-out: IC50 (minimum concentration of the drug which inhibited more than 50% of platelet aggregation). The method, then: The in vitro platelet aggregation imhibiting activity of the compounds of the invention were examined by using rabbits. Blood was withdrawn from the ear vein of Japanese domestic white male rabbits weighing 2.5 to 3.5 kg. A mixture of a 3.8% trisodium citrate solution and the blood in a ratio of 1:9 was centrifuged at a speed of 1000 rpm for 10 minutes. The upper layer was separated as platelet-rich plasma (PRP). The lower layer was further centrifuged at a speed of 28000 rpm for 10 minutes. The upper layer was separated as platelet-poor plasma (PPP). The number of platelets was adjusted to 6×10^5 /μl to 7×10^5 […] by diluting the PRP with PPP. 25 microliters of the test compounds prepared as shown below was added in an amount of 25 to 250 microliters of PRP after the adjustment, and the mixture was pre-incubated at 37° C. for 2 minutes, and then 10 μM (final) of ADP was added. By using an aggregometer, changes in transmission were recorded.
The drug was dissolved in ethanol to a concentration of 10 mg/ml, and successively diluted with phosphate buffer (pH 7.4) prior to use.
The rate of inhibition of platelet aggregation was determined from the following equation. [formula] To : the transmittance of the system containing the phosphate buffer, T: The transmittance of the system to which the test drug was added. […]

For experiment [1], the system named is blood pressure and heart beat rate of rats. As to the kind of experiment: Measurement of the hypotensive activity (blood pressure and heart beat rate, i.v., anesthetized rats). It counts as in vivo, rat (male wister rats). The note with it: Rattus norvegicus, iv, urethane/α-chloralose anesthesia; for ED10: read-out: H-ED10 (dosage which caused a 10% increase of the heart rate); for ED20: read-out: P-ED20 (dosage which caused a 20% lowering of the mean blood pressure). On the procedure: Measurement of the Hypotensive Activity
The actions of the 6-nitroprostaglandin E1 derivatives of the invention on the blood pressure and heart beat rate of rats were examined by intravenous injection under anesthesia.
Male wister rats weighing about 250 g were used. Urethane (500 mg/kg) and α-chloralose (100 mg/kg) were intraperitoneally administered to the rats. The rats were anesthetized and fixed in place.
Each of the test compounds was dissolved in a small amount of ethanol and diluted with physiological saline to adjust the final ethanol concentration to not more than 5%. The solution was intravenously injected into the rats through a catheter inserted into the femoral vein.
The blood pressure of the rats were measured by a pressure transducer through a catheter inserted into the carotid artery of the rats. The heart beat rate was determined from the blood pressure pulse.
The action of the test compound on the blood pressure was expressed as the dosage (p-EDz20, μg/kg) of the test compound which caused a 20% lowering of the mean blood pressure before administration of the compound. The action of the test compound on the heart rate was expressed as the dosage (H-ED10, μg/kg) of the test compound which caused a 10% increase of the heart rate from the heart beat rate before administration of the test compound.

Another experiment concerns indomethacin ulcer. In words: Measurement of inhibitory activity on indomethacin ulcer. Format: in vivo, rat (wistar-strain male rats). The note with it: indomethacin 20 mg/kg oral, n=8. On the procedure:
Seven week-oil wistar-strain male rats (body weight 200 to 220 g) were fasted for 24 hours but water was provided freely, and then used in the following experiment.
Each of the test compounds suspended in phosphate Buffers (pH 7.4) was orally administered to the rats, and 30 minutes later, indomethacin was orally administered in a dose of 20 mg/kg. Six hours later, the animals were sacrificed. The abdomen was cut open, and the stomach was removed. 1% Even's blue was injected in an amount of 0.5 ml/rat into the rats through the tail vein under ether anesthesia 10 minutes before sacrificing.
12 ml of a 1% formalin was injected into the stomach and the stomach was further dipped in 1% formaline for about 10 minutes for the fixation. The stomach was cut open on the side of the greater curvature, and spread on a glass plate. The lengths of ulcers generated in the glandular stomach were measured by using a solid microscope. The sum of the lengths of the ulcers for each nimal was used as the ulcer index. The ulcer inhibiting ratio of the test compound was calculated in accordance with the following equation. [formula]
The control group was given phosphate buffer saline (pH 7.4) indomethacin alone.

In brackets after ≈: the same amount, converted by molar mass.

For `CCCC[C@H](C)C[C@H](O)/C=C/[C@H]1[C@H](O)CC(=O)[C@@H]1CC(CCCCC(=O)OC)[N+](=O)[O-]` (stereo partly drawn) [17(S),20-dimethyl-6-nitroprostaglandin E1 methyl ester], the IC50 in the experiment with platelet aggregation was found to be 0.017 mg/L (≈ 0.0385 µM). Moreover, the ED10 in experiment [1] is greater than 0.01 mg/kg. Besides, the ED20 in experiment [1] is 0.0004 mg/kg. Also, the results for the “Inhibition (ulcer inhibiting ratio)” value in the experiment with indomethacin ulcer (3 μg/kg oral), in the experiment on indomethacin ulcer (10 μg/kg oral) and with indomethacin ulcer (30 μg/kg oral) were 12.6%, 51.0% and 80.4%, respectively. For the same compound, the Ulcer index was determined as 12.5 ± 3.2 mm with indomethacin ulcer (3 μg/kg oral); 7.0 ± 1.8 mm with indomethacin ulcer (10 μg/kg oral); 2.8 ± 1.2 mm in the experiment on indomethacin ulcer (30 μg/kg oral, **P < 0.01).

Take `CCCCC[C@H](O)/C=C/[C@H]1[C@H](O)CC(=O)[C@@H]1CC(CCCCC(=O)OC)[N+](=O)[O-]` (stereo partly drawn) [6-nitroprostaglandin E1 methyl ester]: the IC50 with platelet aggregation amounted to 4.5 mg/L (≈ 10.9 µM). In addition, in experiment [1], the ED10 was greater than 0.01 mg/kg and the ED20 was 0.01 mg/kg.

For the origin of these results see patent US4649156A, “6-nitroprostaglandin derivatives” (Teijin Limited, priority 1982, dated 1987).
